# Measured values as given in EPA's ToxValDB 9.5.
# “And” between values parts separate entries of the source, which are not always exact repeats. Identical values can stand only once.
# How the values were obtained:
# Mus musculus = conditions: for LD50: acute
# Rattus norvegicus [1] = conditions: for LC50 / LD50: acute
# Rattus norvegicus [2] = conditions: for NOEL / LOEL: Hershberger, gavage; for LEL: uterotrophic, Active
# Rattus norvegicus [3] = conditions: subchronic, oral
# [4] = duration: 5 days, oral, Sprague-Dawley, active + Antiandrogenic + decrease in AST wts
# [5] = duration: 10 days, oral, Fischer 344, active + Antiandrogenic + anti-androgenic + decrease in AST wts
# [6] = duration: 10 days, oral, Sprague-Dawley, Antiandrogenic + anti-androgenic + decrease in AST wts
# [7] = duration: 10 days, oral, Wistar, active + Antiandrogenic + anti-androgenic + decrease in AST wts
# [8] = short-term, duration: 14 days, oral, diet, B6C3F1
# [9] = subchronic, duration: 13 weeks, oral, diet, B6C3F1
# [10] = chronic, duration: 103 weeks, oral, diet, Fischer 344
# [11] = short-term, duration: 14 days, oral, diet, Fischer 344
# [12] = subchronic, duration: 13 weeks, oral, diet, Fischer 344
# [13] = chronic, duration: 103 weeks, inhalation, Fischer 344
smiles,measurement,setting,value
C=CC(=O)OCCN(C)C [2-(Dimethylamino)ethyl acrylate],LD50,"Mus musculus; injection, Intraperitoneal, NMRI",200 mg/kg
same,LC50,"Rattus norvegicus [1]; Inhalation, Sprague-Dawley",0.066 mg/L
same,LD50,Rattus norvegicus [1]; dermal,891 mg/kg
same,LD50,"Rattus norvegicus [1]; dermal, semiocclusive, Sprague-Dawley",419 mg/kg
same,LC50,Rattus norvegicus [1]; inhalation,0.22 mg/L and < 0.352 mg/L
same,LC50,"Rattus norvegicus [1]; inhalation, Wistar",0.972 mg/L
same,LD50,"Rattus norvegicus [1]; injection, Intraperitoneal",183 mg/kg
same,LD50,Rattus norvegicus [1]; oral,533 mg/kg
same,NOAEL,"Rattus norvegicus [1]; developmental, oral, gavage, Crj:CD",30 mg/kg-day
same,NOAEL,"Rattus norvegicus [1]; reproduction developmental, duration: 43 days, oral, gavage, Sprague-Dawley",20 mg/kg-day
same,NOAEL,"Rattus norvegicus [1]; reproduction developmental, duration: 43 days, oral, gavage, Sprague-Dawley, generation: F0",100 mg/kg-day
same,NOAEL,"Rattus norvegicus [1]; subchronic, duration: 13 weeks, oral, gavage, Sprague-Dawley",10 mg/kg-day
CCCCCCCCCCCCCCCCCCN [1-Octadecanamine],LD50,"Mus musculus; oral, gavage",1000 mg/kg
same,LD50,"Rattus norvegicus [1]; oral, gavage",1000 mg/kg and > 2000 mg/kg
same,LD50,"Rattus norvegicus [1]; oral, gavage, Sprague-Dawley",4800 mg/kg
same,LD50,"Rattus norvegicus [1]; oral, gavage, Wistar",≥ 2000 mg/kg
"CC(=O)CC(=O)N(C)C [N,N-Dimethylacetoacetamide]",LD50,"Mus musculus; oral, gavage",≥ 3200 mg/kg
same,LD50,"Rattus norvegicus [1]; oral, gavage",≥ 3200 mg/kg
Cl.N#Cc1ccc(C2CCCc3cncn32)cc1 (configuration not stated),NOEL,"Rattus norvegicus [2]; duration: 7 days, oral, Wistar, inactive + Negative + anti-androgenic + high dose decreased body wt but no effect on PPS or AST",6 mg/kg-day
CC(C)C(=O)Nc1ccc([N+](=O)[O-])c(C(F)(F)F)c1 [Flutamide],LOEL,Rattus norvegicus [2]; [4],2.5 mg/kg-day
same,NOEL,Rattus norvegicus [2]; [4],0.6 mg/kg-day
same,NOEL,"Rattus norvegicus [2]; duration: 7 days, oral, Sprague-Dawley, active + Antiandrogenic + anti-androgenic + decrease in AST wts",0.6 mg/kg-day
same,LOEL,Rattus norvegicus [2]; [5],2.5 mg/kg-day and 3.2 mg/kg-day
same,NOEL,Rattus norvegicus [2]; [5],0.6 mg/kg-day
same,LOEL,Rattus norvegicus [2]; [6],1 mg/kg-day
same,NOEL,Rattus norvegicus [2]; [6],0.6 mg/kg-day
same,NOEL,"Rattus norvegicus [2]; duration: 10 days, oral, Sprague-Dawley, Neither + decrease in AST",0.6 mg/kg-day
same,NOEL,"Rattus norvegicus [2]; duration: 10 days, oral, Sprague-Dawley, active + Antiandrogenic + anti-androgenic + decrease in AST wts",0.6 mg/kg-day
same,NOEL,"Rattus norvegicus [2]; duration: 10 days, oral, Sprague-Dawley, active + Antiandrogenic + decrease in AST wts",0.6 mg/kg-day
same,LOEL,Rattus norvegicus [2]; [7],2.5 mg/kg-day and 3 mg/kg-day and 3.2 mg/kg-day
same,NOEL,Rattus norvegicus [2]; [7],0.6 mg/kg-day
O=[N+]([O-])c1ccc(O)cc1 [4-Nitrophenol],LEL,"Rattus norvegicus [2]; duration: 7 days, injection, subcutaneous",10 mg/kg-day
Oc1ccc(-c2ccccc2)cc1 [4-Phenylphenol],LEL,"Rattus norvegicus [2]; duration: 3 days, injection, subcutaneous",10 mg/kg-day
same,NOEL,"Rattus norvegicus [3]; gavage, M, Sprague-Dawley, Body Weight Changes: Reduced gain + Food Consumption: decrease + Hematology: WBC increase, NeutrophilSegment(%) decrease, Lymphocyte(%) …",30 mg/kg-day
C#C[C@]1(OC(=O)CC)C[C@@H]2CC[C@@H]3[C@H](CC[C@@]4(C)[C@H]3CC[C@]4(C#C)OC(=O)CC)[C@H]2C1 [Dinordrin II],LEL,"Rattus norvegicus [2]; duration: 3 days, oral",0.01 mg/day
"Nc1ccc(C=Cc2ccc(N)cc2S(=O)(=O)[O-])c(S(=O)(=O)[O-])c1.[Na+].[Na+] [4,4'-Diamino-2,2'-stilbenedisulfonic acid, disodium salt]",NOEL,"Rattus norvegicus [3]; duration: 13 weeks, diet, M/F, Fischer 344, Deaths + Clinical Observation: Soft stool, Diarrhea Redness around anus + Body Weight Changes: decrease + Food Consumption: decrease + Blood…",< 600 mg/kg-day
same,LOAEL,Mus musculus; [8],50000 ppm
same,NOAEL,Mus musculus; [8],25000 ppm
same,LOAEL,Mus musculus; [9],4920 mg/kg-day
same,NOAEL,Mus musculus; [9],2460 mg/kg-day
same,LD50,"Rattus norvegicus [1]; oral, gavage, Wistar",> 5000 mg/kg
same,LOAEL,Rattus norvegicus [1]; [10],1950 mg/kg-day
same,NOAEL,Rattus norvegicus [1]; [10],975 mg/kg-day
same,LOAEL,Rattus norvegicus [1]; [11],50000 ppm
same,NOAEL,Rattus norvegicus [1]; [11],25000 ppm
same,LOAEL,Rattus norvegicus [1]; [12],4800 mg/kg-day
same,NOAEL,Rattus norvegicus [1]; [12],2400 mg/kg-day
C=CC [1-Propene],NOAEL,"Mus musculus; chronic, duration: 14 weeks, inhalation, B6C3F1",17200 mg/m3
same,NOAEL,"Mus musculus; chronic, duration: 78 weeks, inhalation, Swiss",≥ 8610 mg/m3
same,NOAEL,"Mus musculus; chronic, duration: 103 weeks, inhalation, B6C3F1",≥ 17200 mg/m3
same,LC50,"Rattus norvegicus [1]; inhalation, Sprague-Dawley",> 112000 mg/m3
same,NOAEL,"Rattus norvegicus [1]; chronic, duration: 14 weeks, inhalation, Fischer 344",17200 mg/m3
same,LOAEL,Rattus norvegicus [1]; [13],17200 mg/m3
same,NOAEL,Rattus norvegicus [1]; [13],8610 mg/m3
same,NOAEL,"Rattus norvegicus [1]; chronic, duration: 104 weeks, inhalation, Sprague-Dawley",≥ 8610 mg/m3
same,NOAEL,"Rattus norvegicus [1]; short-term, duration: 4 weeks, inhalation, Fischer 344",17200 mg/m3
COP(=S)(OC)Oc1ccc([N+](=O)[O-])c(C)c1 [Fenitrothion],LOEL,"Rattus norvegicus [2]; duration: 7 days, oral, Sprague-Dawley, active + Negative + Antiandrogenic + anti-androgenic",15 mg/kg-day
"CCCCCCCCCCCCCCC1CO1 (configuration not stated) [1,2-Epoxyhexadecane]",LOAEL,"Mus musculus; subchronic, duration: 13 weeks, dermal, B6C3F1",125 mg/kg-day
same,LD50,"Rattus norvegicus [1]; dermal, occlusive, Sprague-Dawley",2000 mg/kg
same,LD50,"Rattus norvegicus [1]; oral, gavage, Sprague-Dawley",> 5000 mg/kg
same,LOAEL,"Rattus norvegicus [1]; subchronic, duration: 90 days, dermal, Fischer 344",125 mg/kg-day
C#C[C@@]1(OC(=O)CC)C[C@@H]2CC[C@@H]3[C@H](CC[C@@]4(C)[C@H]3CC[C@]4(C#C)OC(=O)CC)[C@H]2C1 [Dinordrin I],LEL,"Rattus norvegicus [2]; duration: 3 days, oral",0.000156 mg/day
